Measurements from ChEMBL document CHEMBL1121669, “Nucleosides. 114. 5'-O-Glucuronides of 5-fluorouridine and 5-fluorocytidine. Masked precursors of anticancer nucleosides” (1981).

System: P815
Test: Cytotoxicity against P815 tumor cell line
Format: functional
Settings: Mus musculus, read-out: ID50 (the source's name)

Row | SMILES | IC50 [µg/mL]
1 | O=C([O-])C1OC(OC[C@H]2OC(n3cc(F)c(=O)[nH]c3=O)[C@H](O)[C@@H]2O)[C@H](O)[C@@H](O)[C@@H]1O.[Na+] (some centres not stated) | 6
2 | Nc1nc(=O)n(C2O[C@H](CO[C@@H]3OC(C(=O)[O-])[C@@H](O)[C@H](O)[C@H]3O)[C@@H](O)[C@H]2O)cc1F.[Na+] (some centres not stated) | 6
